{"source": "patent US20010046509A1", "about": "“Use of cinnamic acid or of its derivatives in a cosmetic firming composition” (priority 1997, published 2001)", "tested_on": "normal human dermal fibroblast cultures", "test": "Effect on collagen synthesis: incorporation of radioactive proline into fibroblast cultures", "type": "cell-based", "details": "for tritiated proline incorporated, cpm (counts per minute): untreated cells 19261 cpm; for tritiated proline incorporation, % relative to untreated cells: untreated cells = 100", "experimental": "The study is carried out by measuring the incorporation of radioactive proline into normal human dermal fibroblast cultures. The fibroblast cultures are prepared according to the standard methods of cell culturing, i.e. in MEM/M199 medium sold by the company Gibco, in the presence of sodium bicarbonate (1.87 mg/ml), L-glutamine (2 mM), penicillin (50 IU/ml) and 10% foetal calf serum (Gibco). The test is carried out on cell cultures at 80% confluence on 24-well plates. Cinnamic acid, at a concentration of 10^−4M is placed in contact with the cells for 48 hours. Labelling with tritiated proline (L-[2,3-^3H]-proline sold by Amersham, 33 μCi/ml) is carried out for 24 hours. The level of tritiated proline incorporated is measured at the end of the test by acidic precipitation of the proteins on filters and counting by liquid scintillation. The results are assessed relative to a control consisting of cells which have not been treated with cinnamic acid. A positive control (20 μg/ml of vitamin C), which is known to stimulate collagen synthesis, and a negative control (10^−6M retinoic acid), which is known to inhibit collagen synthesis, are introduced into the test by way of reference.", "key": {"[1]": {"details": "negative control, 10^-6 M retinoic acid"}, "[2]": {"details": "positive control, 20 μg/ml of vitamin C"}, "[3]": {"details": "cinnamic acid 10^-4 M, 48 hours contact, 24 hours labelling"}}, "data": [{"smiles": "CC1=C(/C=C/C(C)=C/C=C/C(C)=C/C(=O)O)C(C)(C)CCC1", "note": "[Retinoic acid, retinoic acid]", "values": [{"measurement": "tritiated proline incorporated, cpm (counts per minute)", "setting": "[1]", "value": 13160, "unit": "cpm"}, {"measurement": "tritiated proline incorporation, % relative to untreated cells", "setting": "[1]", "value": 68, "unit": "%"}]}, {"smiles": "O=C1O[C@H]([C@@H](O)CO)C(O)=C1O", "note": "[Vitamin C, vitamin C]", "values": [{"measurement": "tritiated proline incorporated, cpm (counts per minute)", "setting": "[2]", "value": 40344, "unit": "cpm"}, {"measurement": "tritiated proline incorporation, % relative to untreated cells", "setting": "[2]", "value": 209, "unit": "%"}]}, {"smiles": "O=C(O)C=Cc1ccccc1", "note": "[Cinnamic acid]", "values": [{"measurement": "incorporation of proline into collagen (collagen neosynthesis), result in words", "setting": "cinnamic acid 10^-4 M, 48 hours", "value": "significantly stimulates the incorporation of proline into collagen"}, {"measurement": "tritiated proline incorporated, cpm (counts per minute)", "setting": "[3]", "value": 26209, "unit": "cpm"}, {"measurement": "tritiated proline incorporation, % relative to untreated cells", "setting": "[3]", "value": 136, "unit": "%"}]}]}
